Results: patent publication US20150197492A1, “NOVEL INDENO[1,2-c]QUINOLIN-11-ONE DERIVATIVES, PREPARATION METHOD AND APPLICATION THEREOF” (National Defense Medical Center, priority 2014, published 2015)
Where two headings read alike, the source gives them in different places.

Assays:
Type in all cases: cell-based
[1] = system: human PC-3 cells; experiment: Sulforhodamine B (SRB) assay, cytotoxicity against PC-3 cells; conditions: for IC50: Homo sapiens
Procedure, shortened: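 PC-3 cells in 5% FBS were fixed with 10% TCA after 24 h as T0, then treated with compound for 48 h, fixed, stained with 0.4% SRB in 1% acetic acid and solubilized in 10 mmol/L Trizma base. Absorbance was read at 515 nm. GI% = 100−[(Tx−T0)/(C−T0)]×100, and IC50 is the concentration halving total protein.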

[2] = system: K-562; experiment: cells; conditions: K-562 (Leukemia), 10 μM, 48 hours
[3] = system: SF-295; experiment: cells; conditions: SF-295 (CNS Cancer), 10 μM, 48 hours
[4] = system: NCI/ADR-RES; experiment: cells; conditions: NCI/ADR-RES (Ovarian Cancer), 10 μM, 48 hours
[5] = system: SF-539; experiment: cells; conditions: SF-539 (CNS Cancer), 10 μM, 48 hours
[6] = system: SR; experiment: cells; conditions: SR (Leukemia), 10 μM, 48 hours
[7] = system: NCI-H460; experiment: cells; conditions: NCI-H460 (Non-Small Cell Lung Cancer), 10 μM, 48 hours
[8] = system: NCI-H23; experiment: cells; conditions: NCI-H23 (Non-Small Cell Lung Cancer), 10 μM, 48 hours
[9] = system: HCT-116; experiment: cells; conditions: HCT-116 (Colon Cancer), 10 μM, 48 hours
[10] = system: 55 to 60 cancer cell lines; conditions: 10 μM; for inhibition effect in different cancer cell lines (summary of the NCI data, in words) / Mean (mean growth percentage of the tested cancer cell lines): 48 hours; for Mean (mean growth percentage of the tested cancer cell lines): all tested cell lines
[11] = system: SK-MEL-5; experiment: cells; conditions: SK-MEL-5 (Melanoma), 10 μM, 48 hours
[12] = system: BT-549; experiment: cells; conditions: BT-549 (Breast Cancer), 10 μM, 48 hours
[13] = system: SK-MEL-28; experiment: cells; conditions: SK-MEL-28 (Melanoma), 10 μM, 48 hours
[14] = system: HL-60 (TB); experiment: cells; conditions: HL-60 (TB) (Leukemia), 10 μM, 48 hours
[15] = system: A498; experiment: cells; conditions: A498 (Renal Cancer), 10 μM, 48 hours
[16] = system: 786-0; experiment: cells; conditions: 786-0 (Renal Cancer), 10 μM, 48 hours
[17] = system: IGROV1; experiment: cells; conditions: IGROV1 (Ovarian Cancer), 10 μM, 48 hours
[18] = system: HOP-62; experiment: cells; conditions: HOP-62 (Non-Small Cell Lung Cancer), 10 μM, 48 hours
[19] = system: HT29; experiment: cells; conditions: HT29 (Colon Cancer), 10 μM, 48 hours
[20] = system: SN12C; experiment: cells; conditions: SN12C (Renal Cancer), 10 μM, 48 hours
[21] = system: DU-145; experiment: cells; conditions: DU-145 (Prostate Cancer), 10 μM, 48 hours
[22] = system: NCI-H226; experiment: cells; conditions: NCI-H226 (Non-Small Cell Lung Cancer), 10 μM, 48 hours
[23] = system: SW-620; experiment: cells; conditions: SW-620 (Colon Cancer), 10 μM, 48 hours
[24] = system: KM12; experiment: cells; conditions: KM12 (Colon Cancer), 10 μM, 48 hours
[25] = system: COLO 205; experiment: cells; conditions: COLO 205 (Colon Cancer), 10 μM, 48 hours
[26] = system: T-47D; experiment: cells; conditions: T-47D (Breast Cancer), 10 μM, 48 hours
[27] = system: CCRF-CEM; experiment: cells; conditions: CCRF-CEM (Leukemia), 10 μM, 48 hours
[28] = system: U251; experiment: cells; conditions: U251 (CNS Cancer), 10 μM, 48 hours
[29] = system: HS 578T; experiment: cells; conditions: HS 578T (Breast Cancer), 10 μM, 48 hours
[30] = system: RXF 393; experiment: cells; conditions: RXF 393 (Renal Cancer), 10 μM, 48 hours

Compound	growth percentage [2] [%]	growth percentage [4] [%]	growth percentage [5] [%]	growth percentage [7] [%]	growth percentage [8] [%]	growth percentage [9] [%]	Mean (mean growth percentage of the tested cancer cell lines) [10] [%]	growth percentage [11] [%]	growth percentage [12] [%]	growth percentage [13] [%]	growth percentage [14] [%]	growth percentage [16] [%]	growth percentage [17] [%]	growth percentage [18] [%]	growth percentage [19] [%]	growth percentage [20] [%]	growth percentage [21] [%]	growth percentage [22] [%]	growth percentage [23] [%]	growth percentage [24] [%]	further results
CNc1nc2ccccc2c2c1-c1ccc(Cl)cc1C2=O [SJ-1, 9-Chloro-6-(methylamino)-11H-indeno[1,2-c]quinolin-11-one]	90.99	92.22	92.08	84.38	86.83	88.31	84.15	80.96	101.88	114.89	102.75	103.34	54.41	87.10	99.44	94.82	106.88	92.19	96.25	66.82	Toxicity (%) ([1]; SRB assay, PC-3 cells): 52.8%; GI % (10 μM) ([1]; SRB assay, PC-3 cells, 10 μM): 100%; growth percentage [3]: 95.71%; growth percentage [6]: 91.67%; inhibition effect in different cancer cell lines (summary of the NCI data, in words) [10]: more effective in breast cancer cell line; growth percentage [15]: 82.03%; growth percentage [25]: 66.47%; growth percentage [26]: 23.53%; growth percentage [27]: 101.50%; growth percentage [28]: 96.03%; growth percentage [29]: 85.28%; growth percentage [30]: 97.15%
CN(C)c1nc2ccccc2c2c1-c1ccc(Cl)cc1C2=O [SJ-2, 9-Chloro-6-(dimethylamino)-11H-indeno[1,2-c]quinolin-11-one]	88.81	92.57	87.80	94.17	82.62	98.57	87.15	94.89	102.55	113.43	95.49	108.01	83.38	78.02	94.89	95.38	106.50	84.79	96.35	94.44	IC50 ([1]; PC-3, 48 h): 4.34 µM; growth percentage [3]: 93.22%; growth percentage [6]: 86.12%; inhibition effect in different cancer cell lines (summary of the NCI data, in words) [10]: more effective in breast cancer cell line; growth percentage [15]: 96.00%; growth percentage [25]: 100.97%; growth percentage [26]: 44.88%; growth percentage [27]: 92.13%; growth percentage [28]: 98.98%; growth percentage [29]: 72.84%; growth percentage [30]: 101.32%
COc1nc2ccccc2c2c1-c1ccc(Cl)cc1C2=O [SJ-27, 6-Methoxy-9-chloro-11H-indeno[1,2-c]quinolin-11-one]	108.53	94.29	91.49	98.27	93.26	88.60	96.23	98.51	92.95	106.24	108.77	103.51	96.92	96.01	111.60	89.48	121.06	89.22	98.89	98.35	growth percentage [15]: 93.51%; growth percentage [25]: 108.91%; growth percentage [26]: 78.97%; growth percentage [27]: 89.25%; growth percentage [28]: 97.67%; growth percentage [29]: 92.74%; growth percentage [30]: 114.49%
O=C1c2cc(Cl)ccc2-c2c(Cl)nc3ccccc3c21 [TC-XCl-1, 6,9-Dichloro-11H-indeno[1,2-c]quinolin-11-one]	102.16	96.78	110.08	98.68	79.30	105.87	98.17	86.30	119.62	90.08	102.00	112.40	92.82	94.89	104.27	88.03	113.91	91.86	98.29	111.92	IC50 ([1]; SRB assay, PC-3 cells, 48 hours, read-out: IC50): > 15 µM; growth percentage [3]: 92.80%; growth percentage [6]: 65.85%; number of cancer cell lines whose growth is inhibited ([10]; including leukemia and breast cancer cells): 9; growth percentage [25]: 99.18%; growth percentage [26]: 86.97%; growth percentage [27]: 64.86%; growth percentage [28]: 100.63%; growth percentage [29]: 91.01%; growth percentage [30]: 112.80%
